≈ marks a conversion by molar mass, not a printed value. Entries after “also recorded” stand apart in the source; their conditions may differ.
Tests used:
[1] = molecular target: T1, human GPR84 (Homo sapiens, UniProt P04899+Q9NQS5); assay: biochemical; assay type: biochemical; conditions: [35S]GTPγS assay; negative log of the IC50 in molar; mean ± SEM
T1 construct: expressed in transfected cells; host or cells: Flp-In T-REx 293 cells, doxycycline-induced; membrane preparations

[2] = Log D7.4 (distribution coefficient); assay type: physicochemical; conditions: pH 7.4
[3] = physchem
Description: DPI = 4,5-Diphenylimidazole
(2 pictures or pasted objects on this page, not shown here)

[4] = Mouse hepatocyte stability; assay type: in vitro ADME; conditions: hepatocytes, read-out: mouse heps t1/2
[5] = Mouse plasma protein binding; assay type: in vitro ADME; conditions: read-out: mouse PPB
[6] = in vitro; conditions: human, microsomes
[7] = molecular target: T2, human FFAR2 (Homo sapiens, UniProt O15552); assay: [35S]GTPγS binding, block of C3 (propionate) at FFAR2; assay type: biochemical; conditions: tested at 10 μM
T2 construct: expressed in transfected cells; host or cells: Flp-In T-REx 293 cells, induced; membrane preparations
T2 sequence (O15552 1-330): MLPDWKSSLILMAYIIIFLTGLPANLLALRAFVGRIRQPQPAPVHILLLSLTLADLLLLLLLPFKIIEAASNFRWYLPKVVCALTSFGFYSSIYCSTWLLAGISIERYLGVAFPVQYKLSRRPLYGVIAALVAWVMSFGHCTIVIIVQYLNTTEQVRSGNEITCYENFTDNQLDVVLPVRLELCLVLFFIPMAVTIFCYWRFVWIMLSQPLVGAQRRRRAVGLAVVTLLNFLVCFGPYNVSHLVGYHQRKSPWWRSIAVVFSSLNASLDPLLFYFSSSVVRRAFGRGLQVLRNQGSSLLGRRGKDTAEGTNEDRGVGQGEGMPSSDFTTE

[8] = molecular target: T3, human FFAR3 (Homo sapiens, UniProt O14843); assay: [35S]GTPγS binding, block of C3 (propionate) at FFAR3; assay type: biochemical; conditions: tested at 10 μM
T3 construct: expressed in transfected cells; host or cells: Flp-In T-REx 293 cells, induced; membrane preparations
T3 sequence (O14843 1-346): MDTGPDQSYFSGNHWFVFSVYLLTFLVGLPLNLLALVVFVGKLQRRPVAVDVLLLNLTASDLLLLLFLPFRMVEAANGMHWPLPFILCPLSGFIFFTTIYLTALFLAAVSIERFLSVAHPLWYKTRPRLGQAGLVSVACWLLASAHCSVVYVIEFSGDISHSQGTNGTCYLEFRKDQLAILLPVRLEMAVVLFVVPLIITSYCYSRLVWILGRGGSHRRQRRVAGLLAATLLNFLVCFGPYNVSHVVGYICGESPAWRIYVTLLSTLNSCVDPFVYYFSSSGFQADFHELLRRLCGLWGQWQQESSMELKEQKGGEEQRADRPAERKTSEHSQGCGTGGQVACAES

[9] = In vivo mouse PK, IV dosing; conditions: IV (1 mg/kg), CV % in parenthesis
Protocol: (§1) Mouse pharmacokinetic studies were carried out by Xenogesis Ltd. (Nottingham, U.K.). All life phases were conducted in accordance with the local Ethics Review process.
(§2) Male C57BL/6J mice (n = 3, Charles River, U.K.) were intravenously administered with a dose of 1 mg/kg of the appropriate compound (formulation 5% v/v DMSO in 20% w/v HPCD in water). […] Plasma concentrations were determined by LC/MS/MS. LC/MS/MS analysis was performed using a Thermo TSQ Quantiva with Thermo Vanquish UPLC system on a Luna Omega C18 column. The plasma concentrations were simulated by nonparametric analysis from the plasma concentrations obtained in the PK study using Phoenix WinNonlin.

[10] = In vivo mouse PK, PO dosing; conditions: for Tmax / AUCall / Cmax: PO (10 mg/kg); for AUCall / Cmax / bioavailability: CV % in parenthesis; for bioavailability: male, C57BL/6J, plasma, PO (10 mg/kg) vs IV (1 mg/kg)
Protocol: as §1
as §2, with “were orally” for “were intravenously”, “of 10” for “of 1”, “(formulation 0.5%” for “(formulation 5% v/v DMSO in 20%”, “w/v methylcellulose” for “w/v HPCD”

[11] = tested on: mouse plasma protein; assay: Mouse plasma protein binding; assay type: in vitro ADME
[12] = tested on: mouse GPR84; conditions: cited from earlier work
[13] = molecular target: GPR84-Gαi2 fusion protein, Phe101Ala (Homo sapiens, UniProt Q9NQS5, F101A); assay: [35S]GTPγS binding, GPR84-Gαi2 fusion protein, Phe101Ala; conditions: Phe101 to Ala, versus wild type
[14] = molecular target: GPR84-Gαi2 fusion protein, Phe335Ala (Homo sapiens, UniProt Q9NQS5, F335A); assay: [35S]GTPγS binding, GPR84-Gαi2 fusion protein, Phe335Ala; conditions: Phe335 to Ala, versus wild type
[15] = molecular target: GPR84-Gαi2 fusion protein, Trp360Ala (Homo sapiens, UniProt Q9NQS5, W360A); assay: [35S]GTPγS binding, GPR84-Gαi2 fusion protein, Trp360Ala; conditions: Trp360 to Ala, versus wild type
[16] = pH 7.4, Kinetic Solubility, R=1, PBS pH7.4 in 2% DMSO by plate reader, replicate 1
[17] = pH 7.4, Kinetic Solubility, R=2, PBS pH7.4 in 2% DMSO by plate reader, replicate 2
[18] = pH 7.4, kinetic solubility, PBS pH7.4 in 2% DMSO

T1 sequence (Q9NQS5+P04899 fused): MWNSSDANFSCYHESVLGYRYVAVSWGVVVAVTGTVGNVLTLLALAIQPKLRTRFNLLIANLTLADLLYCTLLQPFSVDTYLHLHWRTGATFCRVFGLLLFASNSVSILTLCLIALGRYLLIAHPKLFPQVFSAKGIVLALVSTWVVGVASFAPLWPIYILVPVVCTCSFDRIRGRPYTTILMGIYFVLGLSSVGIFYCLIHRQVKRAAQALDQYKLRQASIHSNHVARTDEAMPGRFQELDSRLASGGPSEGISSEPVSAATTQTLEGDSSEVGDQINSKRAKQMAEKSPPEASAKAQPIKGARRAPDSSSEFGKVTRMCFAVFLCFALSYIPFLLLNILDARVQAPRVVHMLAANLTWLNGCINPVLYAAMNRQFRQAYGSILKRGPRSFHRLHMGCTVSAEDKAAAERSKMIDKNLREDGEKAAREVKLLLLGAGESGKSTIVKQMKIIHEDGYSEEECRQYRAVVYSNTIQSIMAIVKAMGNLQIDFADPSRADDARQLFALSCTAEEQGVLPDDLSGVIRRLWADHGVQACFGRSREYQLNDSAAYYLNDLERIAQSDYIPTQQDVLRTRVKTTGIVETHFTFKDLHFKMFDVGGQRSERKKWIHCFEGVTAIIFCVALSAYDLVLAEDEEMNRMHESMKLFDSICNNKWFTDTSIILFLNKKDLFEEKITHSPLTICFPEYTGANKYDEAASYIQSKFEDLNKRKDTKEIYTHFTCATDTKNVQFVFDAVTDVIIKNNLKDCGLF
GPR84-Gαi2 fusion protein, Trp360Ala, sequence (Q9NQS5 whole entry W360A, the tested form may be a part): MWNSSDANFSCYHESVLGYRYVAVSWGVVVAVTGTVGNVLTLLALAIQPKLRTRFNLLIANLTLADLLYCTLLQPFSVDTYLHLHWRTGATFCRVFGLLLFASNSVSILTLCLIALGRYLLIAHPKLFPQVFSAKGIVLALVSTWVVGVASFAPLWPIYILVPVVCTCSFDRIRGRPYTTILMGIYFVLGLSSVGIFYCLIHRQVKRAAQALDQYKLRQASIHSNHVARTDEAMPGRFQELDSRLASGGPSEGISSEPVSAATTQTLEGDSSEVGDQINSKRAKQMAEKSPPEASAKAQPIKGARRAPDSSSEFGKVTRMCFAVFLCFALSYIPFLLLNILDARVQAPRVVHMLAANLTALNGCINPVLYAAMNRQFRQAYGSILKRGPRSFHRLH
GPR84-Gαi2 fusion protein, Trp360Ala, sequence (P04899 2-355 partner): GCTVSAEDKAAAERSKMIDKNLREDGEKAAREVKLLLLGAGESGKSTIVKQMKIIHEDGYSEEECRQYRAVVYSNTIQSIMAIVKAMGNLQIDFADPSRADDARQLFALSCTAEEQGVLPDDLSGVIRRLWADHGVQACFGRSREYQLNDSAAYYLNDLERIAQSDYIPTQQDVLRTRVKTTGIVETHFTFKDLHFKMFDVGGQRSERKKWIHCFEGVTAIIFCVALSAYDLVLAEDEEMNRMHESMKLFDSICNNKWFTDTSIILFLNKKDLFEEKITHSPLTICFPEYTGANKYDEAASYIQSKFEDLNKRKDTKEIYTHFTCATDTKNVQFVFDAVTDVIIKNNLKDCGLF
GPR84-Gαi2 fusion protein, Phe335Ala, sequence (Q9NQS5 whole entry F335A, the tested form may be a part): as the sequence (Q9NQS5 whole entry W360A, the tested form may be a part) above, with F335A, A360W counted along it
GPR84-Gαi2 fusion protein, Phe335Ala, sequence (P04899 2-355 partner): as the sequence (P04899 2-355 partner) above
GPR84-Gαi2 fusion protein, Phe101Ala, sequence (Q9NQS5 whole entry F101A, the tested form may be a part): as the sequence (Q9NQS5 whole entry W360A, the tested form may be a part) above, with F101A, A360W counted along it
GPR84-Gαi2 fusion protein, Phe101Ala, sequence (P04899 2-355 partner): as the sequence (P04899 2-355 partner) above

Compound: CNC(=O)c1ccc(-c2nnc(Cc3c[nH]c4cnccc34)nc2-c2ccccc2)cc1 [Compound 68, 4-(3-((1H-Pyrrolo[2,3-c]pyridin-3-yl)methyl)-5-phenyl-1,2,4-triazin-6-yl)-N-methylbenzamide]
- GTPγS (pIC50) [1]: 7.29 ± 0.05
- logD [2]: 2.71
- solubility kinetic [3, 16]: 149 µM (≈ 62.7 µg/mL)
- solubility kinetic [3, 17]: 143 µM (≈ 60.1 µg/mL)
- solubility kinetic [3, 18]: 146 µM (≈ 61.4 µg/mL)
- half-life [4]: 12.5 min
- fraction unbound [5]: 0.038
- half-life [6]: 39.9 min

Compound: O=C(NCCO)c1ccc(-c2nnc(Cc3c[nH]c4ccccc34)nc2-c2ccccc2)cc1 [Compound 76, 4-(3-((1H-Indol-3-yl)methyl)-5-phenyl-1,2,4-triazin-6-yl)-N-(2-hydroxyethyl)benzamide]
- GTPγS (pIC50) [1]: 7.46 ± 0.07
- block of the actions of the C3 fatty acid propionate at FFAR2 [7]: no ability to block; also recorded: did not block
- block of the actions of the C3 fatty acid propionate at FFAR3 [8]: no ability to block; also recorded: did not block
- logD [2]: 3.09
- solubility kinetic [3, 16]: 59 µM (≈ 26.5 µg/mL)
- solubility kinetic [3, 17]: 62 µM (≈ 27.9 µg/mL)
- solubility kinetic [3, 18]: 61 µM (≈ 27.4 µg/mL)
- half-life [4]: 47.3 min
- fraction unbound [5]: 0.011
- AUCall [9]: 757 (10.8) ng/mL·h
- C0 [9]: 1170 (29.6) ng/mL
- CL [9]: 22.0 (11.3) mL/min/kg
- Vss [9]: 1.81 (15.2) L/kg
- half-life [9]: 1.22 (13.5) h
- Tmax [10]: 60 min
- AUCall [10]: 3160 (8.82) ng/mL·h
- Cmax [10]: 1080 (16.1) ng/mL
- bioavailability [10]: 41.5%
- half-life [6]: 57.2 min

Compound: c1ccc(-c2nnc(Cc3c[nH]c4ccccc34)nc2-c2ccccc2)cc1 [Compound 4, 3-((5,6-Diphenyl-1,2,4-triazin-3-yl)methyl)-1H-indole]
- block of the actions of the C3 fatty acid propionate at FFAR2 [7]: no ability to block; also recorded: did not block
- block of the actions of the C3 fatty acid propionate at FFAR3 [8]: no ability to block; also recorded: did not block
- logD [2]: 4.24
- solubility kinetic ([3]; pH 7.4, Kinetic Solubility, R=1, PBS pH7.4 in 2% DMSO by LC-MS, replicate 1): 1.5 µM (≈ 0.544 µg/mL)
- solubility kinetic ([3]; pH 7.4, Kinetic Solubility, R=2, PBS pH7.4 in 2% DMSO by LC-MS, replicate 2): 1.3 µM (≈ 0.471 µg/mL)
- solubility kinetic [3, 18]: 1.4 µM (≈ 0.507 µg/mL)
- half-life [4]: 4.4 min
- mouse PPB [11]: <1 %free
- half-life [6]: 21.8 min

Compound: COc1ccc(-c2nnc(Cc3c[nH]c4ccccc34)nc2-c2ccc(OC)cc2)cc1 [Compound 1, 3-((5,6-Bis(4-methoxyphenyl)-1,2,4-triazin-3-yl)methyl)-1H-indole]
- GTPγS (pIC50) [1]: 7.93 ± 0.21
- block of the actions of the C3 fatty acid propionate at FFAR2 [7]: no ability to block; also recorded: did not block
- block of the actions of the C3 fatty acid propionate at FFAR3 [8]: no ability to block; also recorded: did not block
- antagonism of mouse GPR84 [12]: unable to antagonize
- affinity to block effects of the allosteric agonist PSB-16671 [13]: substantial loss of affinity
- affinity to block effects of the allosteric agonist PSB-16671 [14]: substantial loss of affinity
- affinity to block effects of the allosteric agonist PSB-16671 [15]: substantial loss of affinity

Compound: c1ccc(-c2nc(Cc3c[nH]c4ccccc34)nnc2-c2ccc(CN3CCOCC3)cc2)cc1 [Compound 42, 4-(4-(3-((1H-Indol-3-yl)methyl)-5-phenyl-1,2,4-triazin-6-yl)benzyl)morpholine]
- GTPγS (pIC50) [1]: 8.28 ± 0.11
- block of the actions of the C3 fatty acid propionate at FFAR2 [7]: no ability to block; also recorded: did not block
- block of the actions of the C3 fatty acid propionate at FFAR3 [8]: no ability to block; also recorded: did not block
- logD [2]: 3.84
- solubility kinetic [3, 16]: 12 µM (≈ 5.54 µg/mL)
- solubility kinetic [3, 17]: 16 µM (≈ 7.39 µg/mL)
- solubility kinetic [3, 18]: 14 µM (≈ 6.46 µg/mL)
- half-life [4]: 16 min
- mouse PPB [11]: <1 %free
- AUCall [9]: 420 (12.5) ng/mL·h
- C0 [9]: 394 (19.1) ng/mL
- CL [9]: 38.9 (13.9) mL/min/kg
- Vss [9]: 7.24 (9.2) L/kg
- half-life [9]: 2.51 (6.55) h
- Tmax [10]: 60 min
- AUCall [10]: 1590 (18.7) ng/mL·h
- Cmax [10]: 402 (31.8) ng/mL
- bioavailability [10]: 36.8%
- half-life [6]: 12.8 min

From PMC9421653 (Journal of Medicinal Chemistry, 2022)
